The values below come from patent US20130196949A1, “Hydroxyalkyl starch in combination with cytostatica for the treatment of cancers by reduction of tumor growth rates” (Fresenius Kabi Deutschland GmbH, priority 2012, published 2013).

The structures appear in SMILES notation. Read-outs that look alike come from different tables or passages of the source.

The nature of data set [1]: Relative body weight of mice bearing RXF 1220 tumors. The data set is classed as in vivo. The note with it: RXF 1220 study, FIG. 6.
Procedure: Starting on day 0, animals were weighed once to twice a week. Relative body weights (RBW) of individual animals are calculated by dividing the individual absolute body weight on day X (BWx) by the individual body weight on the day of randomization, i.e. day 0 (BW0), multiplied by 100, as shown by the following equation: Group median of relative body weights were determined, considering only the weights of animals that were alive on the day in question. Mice were either treated with Sunitinib at a dose of 40 mg/kg p.o., with a combination of Voluven® 10% (20 ml/kg i.v.) and Sunitinib (40 mg/kg p.o.), or with saline (20 ml/kg) i.v. at days 0-11. Tumor growth and body weight were determined over the course of the experiment.
Data set [2] relates to RXF 1220 (renal cancer, hypernephroma) xenograft. The note with it: day 27; Sunitinib 40 mg/kg p.o., Voluven 10% 20 ml/kg i.v. 1 hour prior; days 0-11.
Procedure: (§1) Animals and tumor implants were monitored daily until the maximum number of implants show clear signs of beginning solid tumor growth. […] The day of randomization was designated as day 0 of an experiment and was also the first day of dosing.
(§2) The tumor volume was determined by a two-dimensional measurement with callipers on the day of randomization (Day 0) and then once to twice weekly. Tumor volumes were calculated according to the following equation:
Tumor Vol[mm^3]=a[mm]×b^2[mm^2]×0.5
(§3) where “a” is the largest diameter and “b” is the perpendicular diameter of the tumor representing an idealized ellipsoid.
(§4) The relative volume of an individual tumor on day X (RTVx) was calculated by dividing the absolute volume [mm^3] of the respective tumor on day X (Tx) by the absolute volume of the same tumor on the day of randomization, i.e. on day 0 (T0), multiplied by 100, as shown by the following equation:
(§5) Group median of RTVs were calculated, considering only the tumors of animals that were alive on the day in question. Group median RTVs are used for drawing tumor growth curves.
Mice were either treated with Sunitinib at a dose of 40 mg/kg p.o., with a combination of Voluven® 10% (20 ml/kg i.v.) and Sunitinib (40 mg/kg p.o.), or with saline (20 ml/kg) i.v. at days 0-11. Tumor growth and body weight were determined over the course of the experiment. […]
Data set [3] concerns LXFE 397/26N17 (Non-Small Cell Lung Cancer, squamous cell carcinoma) xenograft.
Procedure: as §1, §2
Tumor Vol[mm^3]=a[mm]×b^2[mm^2]×0.5
as §3, §4, §5
Mice were either treated with Capecitabine at a dose of 100 mg/kg per orally (p.o.), with the plasma expander Voluven® 10% at a dose of 20 ml/kg bodyweight intravenously (i.v.), or with saline (20 ml/kg) i.v. at days 0, 4, 7, 11, 14, and 18. Tumor growth and body weight were determined over the course of the experiment. […]
For data set [4] the following is noted: LXFE 397 study, FIG. 2.
Procedure: (§6) Starting on day 0, animals were weighed once to twice a week. Relative body weights (RBW) of individual animals are calculated by dividing the individual absolute body weight on day X (BWx) by the individual body weight on the day of randomization, i.e. day 0 (BW0), multiplied by 100, as shown by the following equation:
(§7) Group median of relative body weights were determined, considering only the weights of animals that were alive on the day in question.
Tumor growth and body weight were determined over the course of the experiment.
Data set [5] concerns HNXF 1842 (Head and Neck Cancer, squamous cell carcinoma) xenograft. The data set is described as follows: Tumor growth of HNXF 1842 human tumor xenograft in NMRI nu/nu mice. The data set is classed as in vivo. (In xenograft studies the graft and the host belong to different species.)
Procedure: as §1, §2
Tumor Vol[mm^3]=a[mm]×b^2[mm^2]×0.5
as §3, §4, §5
Mice were either treated with Paclitaxel at a dose of 10 mg/kg i.v., with a combination of Voluven® 10% (20 ml/kg i.v.) and Paclitaxel (10 mg/kg i.v.), or with saline (20 ml/kg) i.v. at days 0, 7, 14, and 21. Tumor growth and body weight were determined over the course of the experiment. […]
A short description of data set [6]: Relative body weight of mice bearing HNXF 1842 tumors. It is filed as in vivo. The note with it: HNXF 1842 study, FIG. 4.
Procedure: as §6, §7
Mice were either treated with Paclitaxel at a dose of 10 mg/kg i.v., with a combination of Voluven® 10% (20 ml/kg i.v.) and Paclitaxel (10 mg/kg i.v.), or with saline (20 ml/kg) i.v. at days 0, 7, 14, and 21. Tumor growth and body weight were determined over the course of the experiment.

Take `CCN(CC)CCNC(=O)c1c(C)[nH]c(/C=C2\C(=O)Nc3ccc(F)cc32)c1C` [Sunitinib]: in data set [1], the “relative median body weight over time (in words)” value (“relative median body weight” for short) is “increased slightly over time”. Besides, the “median relative tumor volume increase compared to day 0” value (from here on “median relative tumor volume increase”) in data set [2] was “approx. 8.5 fold”.
Consider `CCCCCOC(=O)Nc1nc(=O)n([C@@H]2O[C@H](C)[C@@H](O)[C@H]2O)cc1F` [Capecitabine], for which the “median relative tumor volume increase” value in data set [3] (day 14, Capecitabine 100 mg/kg p.o., Voluven 10% 20 ml/kg i.v. 1 hour prior, days 0, 4, 7, 11, 14, 18) is “approx. 15.2 fold”. In data set [3] (over 14 days, combination compared with reference drug alone), the “inhibitory effect on tumor growth (in words)” value was “moderately inhibited the tumor growth”. Also, the “relative median body weight” value in data set [4] is “did not increase the body weight as steadily as the other two”.
Take `CC(=O)O[C@H]1C(=O)[C@@]2(C)[C@H]([C@H](OC(=O)c3ccccc3)[C@]3(O)C[C@H](OC(=O)[C@H](O)[C@@H](NC(=O)c4ccccc4)c4ccccc4)C(C)=C1C3(C)C)[C@]1(OC(C)=O)CO[C@@H]1C[C@@H]2O` [Paclitaxel]: the “median relative tumor volume increase” value in data set [5] (day 18, Paclitaxel 10 mg/kg i.v., Voluven 10% 20 ml/kg i.v. 1 hour prior, days 0, 7, 14, 21) is recorded as “approx. 7.1 fold”. In addition, the “inhibitory effect on tumor growth (in words)” value in data set [5] (over 18 days, combination compared with reference drug alone) is recorded as “inhibited the tumor growth”. Further, in data set [6], the “relative median body weight” value was “lowest increase”.
